Laboratory results from patent publication US7285556B2, “Thienopyrimidine-based inhibitors of the src family” (Board of Regents, The University of Texas Systems, priority 2000, dated 2007).
pIC50: −log10 of the molar value. Like-named read-outs stand apart in the source and are kept apart here.

Target: T1, Recombinant human Src (Homo sapiens, UniProt P12931)
T1 construct: made in house; host or cells: baculovirus-insect cell system
Experiment: Src tyrosine kinase activity, poly E4Y and 32P-ATP
Assay type: biochemical
Description: Recombinant human Src was expressed using the baculovirus-insect cell system and purified as published (Budde et al., 1993 and 2000). Recombinant Csk and the FGF receptor (FGFr) were expressed as glutathione-S-transferase fusion proteins using the pGEX expression vector and E. coli, and purified as described (Sun & Budde, 1995).
The tyrosine kinase activity of Src, Csk and FGFr was determined using poly E4Y and ^32P-ATP. Briefly, enzymes were assayed in a reaction mixture consisting of 0.15 M EPPS-NaOH (pH 8.0) with 6 mM MgCl2, 0.2 mM γ^32P-ATP (0.2-0.4 mCi/μmol), 10% glycerol, 0.1% Triton X-100, and poly E4Y. Poly E4Y is a synthetic peptide whose phosphorylation is measured in this assay by the addition of the radioactively labeled phosphate from the ATP (Budde et al., 1995). […] When ATP was varied (0, 50, 100 and 250 μM), poly E4Y was kept constant at 150 μg/ml.

[1] = Table 2, read-out: Src IC50 (especially good inhibitors of Src)
[2] = read-out: IC50 (preferred compounds for treatment of Src family-related disease)

T1 sequence (P12931 whole entry): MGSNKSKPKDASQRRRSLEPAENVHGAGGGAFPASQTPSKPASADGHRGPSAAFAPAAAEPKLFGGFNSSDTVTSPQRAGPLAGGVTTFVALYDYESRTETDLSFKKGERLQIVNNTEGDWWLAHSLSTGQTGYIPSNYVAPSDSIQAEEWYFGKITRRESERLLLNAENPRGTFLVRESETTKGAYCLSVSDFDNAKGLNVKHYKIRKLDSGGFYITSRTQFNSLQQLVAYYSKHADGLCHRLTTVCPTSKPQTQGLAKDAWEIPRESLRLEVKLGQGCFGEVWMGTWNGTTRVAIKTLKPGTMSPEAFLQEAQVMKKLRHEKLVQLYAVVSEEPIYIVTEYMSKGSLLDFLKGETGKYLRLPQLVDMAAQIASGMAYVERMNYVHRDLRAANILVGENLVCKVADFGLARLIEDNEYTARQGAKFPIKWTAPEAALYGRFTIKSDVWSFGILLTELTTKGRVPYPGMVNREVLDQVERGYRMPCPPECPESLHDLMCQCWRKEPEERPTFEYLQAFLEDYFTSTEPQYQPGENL

Compound | pIC50 [1] | pIC50 [2]
Cc1csc2c(NN=Cc3ccc(O)c(O)c3)ncnc12 [Compound 23, 3,4-Dihydroxybenzaldehyde(7-methylthieno[3,2-d]pyrimidin-4-yl)hydrazone] | ≥ 5.70 | > 5.70
Cc1csc2c(NN=Cc3c[nH]cn3)ncnc12 [Compound 42, 1H-Imidazole-4-carboxaldehyde(7-methylthieno[3,2-d]pyrimidin-4-yl)hydrazone] | ≥ 5.70 | > 5.70
Cc1csc2c(NN=Cc3ccc(O)c([N+](=O)[O-])c3)ncnc12 [Compound 49, 4-Hydroxy-3-nitrobenzaldehyde(7-methylthieno[3,2-d]pyrimidin-4-yl)hydrazone] | ≥ 5.70 | > 5.70
Cc1csc2c(NN=Cc3ccc(O)c(Cl)c3)ncnc12 [Compound 55, 3-Chloro-4-hydroxybenzaldehyde(7-methylthieno[3,2-d]pyrimidin-4-yl)hydrazone] | ≥ 5.70 | > 5.70
C(=NNc1ncnc2ccsc12)c1cccnc1 [Compound 98, 3-Pyridinecarboxaldehyde(thieno[3,2-d]pyrimidin-4-yl)hydrazone] | ≥ 5.70 | > 5.70
Cc1[nH]cnc1C=NNc1ncnc2c(C)csc12 [Compound 100, 5-Methyl-1H-imidazole-4-carboxaldehyde(7-methylthieno[3,2-d]pyrimidin-4-yl)hydrazone] | ≥ 5.70 | > 5.70
Cc1csc2c(NN=CC3CC3)ncnc12 [Compound 178, Cyclopropanecarboxaldehyde(7-methylthieno[3,2-d]pyrimidin-4-yl)hydrazone] | ≥ 5.70 | > 5.70
O=C(O)c1ccc(C=NNc2ncnc3c2sc2ncccc23)cc1 [Compound 245, 4-Carboxybenzaldehyde(pyrido[3′,2′:4,5]thieno[3,2-d]pyrimidin-4-yl)hydrazone] | ≥ 5.70 | > 5.70
O=C(O)c1ccc(C=NNc2ncnc3cc(-c4ccc(F)cc4)sc23)cc1 [Compound 280, 4-Carboxybenzaldehyde(6-(4-fluorophenyl)thieno[3,2-d]pyrimidin-4-yl)hydrazone] | ≥ 5.70 | > 5.70
CS(=O)(=O)c1ccc(-c2cc3ncnc(NN=Cc4ccc(C(=O)O)cc4)c3s2)cc1 [Compound 291, 4-Carboxybenzaldehyde(6-(4-methanesulphonylphenyl)thieno-[3,2-d]pyrimidin-4-yl)hydrazone] | ≥ 5.70 | > 5.70
O=C(O)c1ccc(C=NNc2ncnc3cc(-c4cccc(Cl)c4)sc23)cc1 [Compound 305, 4-Carboxybenzaldehyde(6-(3-chlorophenyl)thieno[3,2-d]pyrimidin-4-yl)hydrazone] | ≥ 5.70 | > 5.70
O=C(O)c1ccc(C=NNc2ncnc3cc(-c4ccccc4Cl)sc23)cc1 [Compound 318, 4-Carboxybenzaldehyde(6-(2-chlorophenyl)thieno[3,2-d]pyrimidin-4-yl)hydrazone] | ≥ 5.70 | > 5.70
COc1ccc(C=NNc2ncnc3cc(-c4ccccc4Cl)sc23)cc1O [Compound 321, 3-Hydroxy-4-methoxybenzaldehyde(6-(2-chlorophenyl)thieno[3,2-d]pyrimidin-4-yl)hydrazone] | ≥ 5.70 | > 5.70
Cc1c(-c2ccccc2)sc2c(NN=Cc3cccnc3)ncnc12 [Compound 359, 3-Pyridinecarboxaldehyde(7-methyl-6-phenylthieno[3,2-d]pyrimidin-4-yl)hydrazone] | ≥ 5.70 | > 5.70
Cc1c(-c2ccccc2)sc2c(NN=Cc3ccc(C(=O)O)cc3)ncnc12 [Compound 360, 4-Carboxybenzaldehyde(7-methyl-6-phenylthieno[3,2-d]pyrimidin-4-yl)hydrazone] | ≥ 5.70 | > 5.70
Cc1c(I)sc2c(NN=Cc3ccc(C(=O)O)cc3)ncnc12 [Compound 373, 4-Carboxybenzaldehyde(6-iodo-7-methylthieno[3,2-d]pyrimidin-4-yl)hydrazone] | ≥ 5.70 | > 5.70
Cc1c(-c2ccsc2)sc2c(NN=Cc3ccc(C(=O)O)cc3)ncnc12 [Compound 380, 4-Carboxybenzaldehyde(7-methyl-6-(3-thienyl)thieno[3,2-d]pyrimidin-4-yl)hydrazone] | ≥ 5.70 | > 5.70
COc1ccc(C=NNc2ncnc3c(C)c(-c4ccsc4)sc23)cc1O [Compound 382, 3-Hydroxy-4-methoxybenzaldehyde(7-methyl-6-(3-thienyl)thieno[3,2-d]pyrimidin-4-yl)hydrazone] | ≥ 5.70 | > 5.70

Compound | pIC50 [1] | pIC50 [2]
Cc1c(-c2ccccc2Cl)sc2c(NN=Cc3ccc(C(=O)O)cc3)ncnc12 [Compound 390, 4-Carboxybenzaldehyde(6-(2-chlorophenyl)7-methylthieno[3,2-d]pyrimidin-4-yl)hydrazone] | ≥ 5.70 | > 5.70
O=C(O)c1ccc(C=NNc2ncnc3cc(I)sc23)cc1 [Compound 395, 4-Carboxybenzaldehyde(6-iodothieno[3,2-d]pyrimidin-4-yl)hydrazone] | ≥ 5.70 | > 5.70
COc1ccc(-c2cc3ncnc(NN=Cc4cccnc4)c3s2)cc1 [Compound 405, 3-Pyridinecarboxaldehyde(6-(4-methoxyphenyl)thieno[3,2-d]pyrimidin-4-yl)hydrazone] | ≥ 5.70 | > 5.70
COc1ccc(-c2cc3ncnc(NN=Cc4ccc(C(=O)O)cc4)c3s2)cc1 [Compound 406, 4-Carboxybenzaldehyde(6-(4-methoxyphenyl)thieno[3,2-d]pyrimidin-4-yl)hydrazone] | ≥ 5.70 | > 5.70
COc1ccc(-c2sc3c(NN=Cc4ccc(C(=O)O)cc4)ncnc3c2C)cc1 [Compound 423, 4-Carboxybenzaldehyde(6-(4-methoxyphenyl)-7-methylthieno[3,2-d]pyrimidin-4-yl)hydrazone] | ≥ 5.70 | > 5.70
COc1cccc(-c2sc3c(NN=Cc4ccc(C(=O)O)cc4)ncnc3c2C)c1 [Compound 427, 4-Carboxybenzaldehyde(6-(3-methoxyphenyl)-7-methylthieno[3,2-d]pyrimidin-4-yl)hydrazone] | ≥ 5.70 | > 5.70
COc1ccccc1-c1sc2c(NN=Cc3ccc(C(=O)O)cc3)ncnc2c1C [Compound 433, 4-Carboxybenzaldehyde(6-(2-methoxyphenyl)-7-methylthieno[3,2-d]pyrimidin-4-yl)hydrazone] | ≥ 5.70 | > 5.70
COc1ccccc1-c1sc2c(NN=Cc3cccs3)ncnc2c1C [Compound 434, 2-Thiophenecarboxaldehyde(6-(2-methoxyphenyl)-7-methylthieno[3,2-d]pyrimidin-4-yl)hydrazone] | ≥ 5.70 | > 5.70
COc1ccc(C=NNc2ncnc3c(C)c(-c4ccccc4OC)sc23)cc1O [Compound 435, 3-Hydroxy-4-methoxybenzaldehyde(6-(2-methoxyphenyl)-7-methylthieno[3,2-d]pyrimidin-4-yl)hydrazone] | ≥ 5.70 | > 5.70
Cc1c(-c2ccc(CO)cc2)sc2c(NN=Cc3ccc(C(=O)O)cc3)ncnc12 [Compound 437, 4-Carboxybenzaldehyde(6-(4-hydroxymethylphenyl)-7-methylthieno[3,2-d]pyrimidin-4-yl)hydrazone] | ≥ 5.70 | > 5.70
Cc1c(-c2cccc(CO)c2)sc2c(NN=Cc3cccnc3)ncnc12 [Compound 440, 3-Pyridinecarboxaldehyde(6-(3-hydroxymethylphenyl)-7-methylthieno[3,2-d]pyrimidin-4-yl)hydrazone] | ≥ 5.70 | > 5.70
Cc1c(-c2cccc(CO)c2)sc2c(NN=Cc3ccc(C(=O)O)cc3)ncnc12 [Compound 441, 4-Carboxybenzaldehyde(6-(3-hydroxymethylphenyl)-7-methylthieno[3,2-d]pyrimidin-4-yl)hydrazone] | ≥ 5.70 | > 5.70
COc1ccc(C=NNc2ncnc3c(C)c(-c4cccc(CO)c4)sc23)cc1O [Compound 443, 3-Hydroxy-4-methoxybenzaldehyde(6-(3-hydroxymethylphenyl)-7-methylthieno[3,2-d]pyrimidin-4-yl)hydrazone] | ≥ 5.70 | > 5.70
Cc1c(/C=C/c2ccccc2)sc2c(NN=Cc3ccc(C(=O)O)cc3)ncnc12 [Compound 448, 4-Carboxybenzaldehyde(7-methyl-6-(trans-2-phenylvinyl)-thieno[3,2-d]pyrimidin-4-yl)hydrazone] | ≥ 5.70 | > 5.70
Cc1c(-c2ccc(C(=O)O)cc2)sc2c(NN=Cc3cccnc3)ncnc12 [Compound 453, 3-Pyridinecarboxaldehyde(6-(4-carboxyphenyl)-7-methylthieno[3,2-d]pyrimidin-4-yl)hydrazone] | ≥ 5.70 | > 5.70
Cc1c(-c2ccc(C(=O)O)cc2)sc2c(NN=Cc3cccs3)ncnc12 [Compound 455, 2-Thiophenecarboxaldehyde(6-(4-carboxyphenyl)-7-methylthieno[3,2-d]pyrimidin-4-yl)hydrazone] | ≥ 5.70 | > 5.70
COc1ccc(C=NNc2ncnc3c(C)c(-c4ccc(C(=O)O)cc4)sc23)cc1O [Compound 456, 3-Hydroxy-4-methoxybenzaldehyde(6-(4-carboxyphenyl)-7-methylthieno[3,2-d]pyrimidin-4-yl)hydrazone] | ≥ 5.70 | > 5.70
